# Source: patent publication US10668067B2, “Pyridine sulfonamides” (AMGEN INC., priority 2016, dated 2020)
# Molecular target: human Nav1.7 (Homo sapiens (Human), UniProt Q15858)
# Assay: Nav 1.7 In Vitro PX Assay (PatchXpress whole cell voltage clamp)
# Format: cell-based
# Details: in-vitro Nav 1.7 PX data
# Procedure, shortened: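 HEK293 cells stably expressing human Nav1.7, automated whole-cell clamp at a holding potential giving 20–50% inactivation; 20 ms steps to −10 mV at 0.1 Hz. One concentration per cell for 3 min; peak current inhibition at end of exposure, 3–5 cells per concentration, IC50 fitted from % inhibition.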
# Sequence of human Nav1.7 (Q15858 whole entry): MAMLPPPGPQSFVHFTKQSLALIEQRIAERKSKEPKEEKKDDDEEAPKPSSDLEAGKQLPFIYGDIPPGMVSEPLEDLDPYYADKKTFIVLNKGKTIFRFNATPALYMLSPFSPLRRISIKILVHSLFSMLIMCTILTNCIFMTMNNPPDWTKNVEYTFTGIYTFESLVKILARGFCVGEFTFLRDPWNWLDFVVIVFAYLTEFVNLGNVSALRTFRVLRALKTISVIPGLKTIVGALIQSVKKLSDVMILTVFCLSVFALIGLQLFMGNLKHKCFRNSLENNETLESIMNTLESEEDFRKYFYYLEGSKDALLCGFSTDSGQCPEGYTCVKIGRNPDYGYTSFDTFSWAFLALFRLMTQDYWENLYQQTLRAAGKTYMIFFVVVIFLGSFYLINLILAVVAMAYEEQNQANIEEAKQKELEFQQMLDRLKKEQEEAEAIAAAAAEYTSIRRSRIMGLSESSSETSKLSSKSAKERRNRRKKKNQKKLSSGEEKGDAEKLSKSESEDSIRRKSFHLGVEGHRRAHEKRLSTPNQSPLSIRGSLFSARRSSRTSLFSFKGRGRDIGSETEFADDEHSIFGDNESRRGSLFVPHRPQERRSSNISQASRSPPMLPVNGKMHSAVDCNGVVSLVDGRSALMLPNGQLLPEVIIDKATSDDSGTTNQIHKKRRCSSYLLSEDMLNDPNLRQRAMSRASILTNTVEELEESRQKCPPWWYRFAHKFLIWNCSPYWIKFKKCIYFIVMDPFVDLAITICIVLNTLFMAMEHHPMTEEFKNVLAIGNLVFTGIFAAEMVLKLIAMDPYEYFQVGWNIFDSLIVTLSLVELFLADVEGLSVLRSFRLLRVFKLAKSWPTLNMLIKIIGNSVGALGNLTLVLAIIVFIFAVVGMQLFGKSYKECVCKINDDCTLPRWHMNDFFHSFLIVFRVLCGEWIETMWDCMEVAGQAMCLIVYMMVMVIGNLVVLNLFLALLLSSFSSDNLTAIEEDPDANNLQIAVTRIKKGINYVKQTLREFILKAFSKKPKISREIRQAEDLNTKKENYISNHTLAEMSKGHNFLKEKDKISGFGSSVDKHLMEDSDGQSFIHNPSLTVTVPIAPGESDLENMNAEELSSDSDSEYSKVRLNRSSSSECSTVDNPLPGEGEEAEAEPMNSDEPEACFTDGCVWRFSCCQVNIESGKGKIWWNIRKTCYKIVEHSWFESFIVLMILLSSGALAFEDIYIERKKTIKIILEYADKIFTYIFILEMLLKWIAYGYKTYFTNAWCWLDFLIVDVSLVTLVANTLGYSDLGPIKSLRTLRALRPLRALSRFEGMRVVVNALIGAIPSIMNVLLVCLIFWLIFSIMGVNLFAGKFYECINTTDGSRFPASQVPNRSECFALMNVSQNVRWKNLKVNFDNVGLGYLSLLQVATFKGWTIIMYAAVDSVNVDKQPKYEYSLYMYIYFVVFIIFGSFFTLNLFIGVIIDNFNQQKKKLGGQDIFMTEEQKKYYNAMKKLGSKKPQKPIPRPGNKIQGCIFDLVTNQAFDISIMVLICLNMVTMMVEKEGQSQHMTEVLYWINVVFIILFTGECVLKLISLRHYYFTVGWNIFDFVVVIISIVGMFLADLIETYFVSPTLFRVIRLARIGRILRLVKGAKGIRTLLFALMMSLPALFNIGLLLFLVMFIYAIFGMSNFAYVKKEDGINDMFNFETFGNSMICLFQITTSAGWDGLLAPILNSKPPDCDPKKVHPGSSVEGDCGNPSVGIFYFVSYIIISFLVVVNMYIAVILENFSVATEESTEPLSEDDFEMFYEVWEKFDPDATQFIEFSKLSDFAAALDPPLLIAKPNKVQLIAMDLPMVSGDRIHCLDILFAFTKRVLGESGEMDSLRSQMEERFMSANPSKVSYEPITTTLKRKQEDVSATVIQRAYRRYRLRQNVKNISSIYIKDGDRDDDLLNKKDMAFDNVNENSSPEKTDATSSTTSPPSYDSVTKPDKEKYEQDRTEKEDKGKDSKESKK
row,Compound,IC50 [nM]
1,"CNC(=O)N(c1ccc(S(=O)(=O)Nc2ncccn2)cn1)c1cc(Cl)c(-c2cc(OC)cc(OC)c2)cc1OC [Example 1-79, 6-((2-chloro-3′,5,5′-trimethoxy-4-biphenylyl)(methylcarbamoyl)amino)-N-2-pyrimidinyl-3-pyridinesulfonamide]",166
2,"CNC(=O)N(c1ccc(S(=O)(=O)Nc2cnsn2)cn1)c1cc(Cl)c(-c2ccc(F)c(OCC(F)(F)F)c2)cc1OC [Example 3-2, 6-((2-chloro-4′-fluoro-5-methoxy-3′-(2,2,2-trifluoroethoxy)-4-biphenylyl)(methylcarbamoyl)amino)-N-1,2,5-thiadiazol-3-yl-3-pyridinesulfonamide]",31
3,"CNC(=O)N(c1ccc(S(=O)(=O)Nc2ccon2)cn1)c1cc(F)c(-c2ccc(C)c(Cl)c2)cc1OC [Example 1-17, 6-((3′-chloro-2-fluoro-5-methoxy-4′-methyl-4-biphenylyl)(methylcarbamoyl)amino)-N-3-isoxazolyl-3-pyridinesulfonamide]",31
4,"CCOc1cc(-c2cc(OC)c(N(C(=O)NC)c3ccc(S(=O)(=O)Nc4ccon4)cn3)cc2Cl)ccc1F [Example 1-67, 6-((2-chloro-3′-ethoxy-4′-fluoro-5-methoxy-4-biphenylyl)(methylcarbamoyl)amino)-N-3-isoxazolyl-3-pyridinesulfonamide]",34
5,"CNC(=O)N(c1ccc(S(=O)(=O)Nc2ncco2)cn1)c1cc(Cl)c(-c2ccc(F)c(OCC(F)(F)F)c2)cc1OC [Example 3-4, 6-((2-chloro-4′-fluoro-5-methoxy-3′-(2,2,2-trifluoroethoxy)-4-biphenylyl)(methylcarbamoyl)amino)-N-1,3-oxazol-2-yl-3-pyridinesulfonamide]",53
6,"CNC(=O)N(c1ccc(S(=O)(=O)Nc2ncccn2)cn1)c1cc(F)c(-c2cccc(C(F)(F)F)c2)cc1OC [Example 1-81, 6-((2-fluoro-5-methoxy-3′-(trifluoromethyl)-4-biphenylyl)(methylcarbamoyl)amino)-N-2-pyrimidinyl-3-pyridinesulfonamide]",143
7,"CNC(=O)N(c1ccc(S(=O)(=O)Nc2cnsn2)cn1)c1cc(Cl)c(-c2ccc(F)c(C(F)(F)F)c2)cc1OC [Example 3-8, 6-((2-chloro-4′-fluoro-5-methoxy-3′-(trifluoromethyl)-4-biphenylyl)(methylcarbamoyl)amino)-N-1,2,5-thiadiazol-3-yl-3-pyridinesulfonamide]",14
8,"CNC(=O)N(c1ccc(S(=O)(=O)Nc2ccon2)cn1)c1cc(F)c(-c2cccc(OCC(F)(F)F)c2)cc1OC [Example 1-12, 6-((2-fluoro-5-methoxy-3′-(2,2,2-trifluoroethoxy)-4-biphenylyl)(methylcarbamoyl)amino)-N-3-isoxazolyl-3-pyridinesulfonamide]",85
9,"CNC(=O)N(c1ccc(S(=O)(=O)Nc2ccon2)cn1)c1cc(F)c(-c2cc(Cl)cc(OC)c2)cc1OC [Example 1-6, 6-((3′-chloro-2-fluoro-5,5′-dimethoxy-4-biphenylyl)(methylcarbamoyl)amino)-N-3-isoxazolyl-3-pyridinesulfonamide]",51
10,"CNC(=O)N(c1ccc(S(=O)(=O)Nc2cccnn2)cn1)c1cc(Cl)c(-c2ccc(F)c(OCC(F)(F)F)c2)cc1OC [Example 2-4, 6-((2-chloro-4′-fluoro-5-methoxy-3′-(2,2,2-trifluoroethoxy)-4-biphenylyl)(methylcarbamoyl)amino)-N-3-pyridazinyl-3-pyridinesulfonamide]",54
11,"CNC(=O)N(c1ccc(S(=O)(=O)Nc2ccon2)cn1)c1cc(Cl)c(-c2cc(OC(F)(F)F)ccc2OC)cc1OC [Example 1-56, 6-((2-chloro-2′,5-dimethoxy-5′-(trifluoromethoxy)-4-biphenylyl)(methylcarbamoyl)amino)-N-3-isoxazolyl-3-pyridinesulfonamide]",19
12,"CNC(=O)N(c1ccc(S(=O)(=O)Nc2ccon2)cn1)c1cc(F)c(-c2ccc(F)c(F)c2)cc1OC [Example 1-22, N-3-isoxazolyl-6-((methylcarbamoyl)(2,3′,4′-trifluoro-5-methoxy-4-biphenylyl)amino)-3-pyridinesulfonamide]",199
13,"CNC(=O)N(c1ccc(S(=O)(=O)Nc2ccnc(C)n2)cn1)c1cc(Cl)c(-c2ccc(F)c(OCC(F)(F)F)c2)cc1OC [Example 3-5, 6-((2-chloro-4′-fluoro-5-methoxy-3′-(2,2,2-trifluoroethoxy)-4-biphenylyl)(methylcarbamoyl)amino)-N-(2-methyl-4-pyrimidinyl)-3-pyridinesulfonamide]",76
14,"CNC(=O)N(c1ccc(S(=O)(=O)Nc2ccon2)cn1)c1cc(Cl)c(-c2ccc(Cl)c(C)c2)cc1OC [Example 1-29, 6-((2,4′-dichloro-5-methoxy-3′-methyl-4-biphenylyl)(methylcarbamoyl)amino)-N-3-isoxazolyl-3-pyridinesulfonamide]",20

# Other lines, results leading:
row,IC50 [nM],Compound
1,90,"CNC(=O)N(c1ccc(S(=O)(=O)Nc2ccon2)cn1)c1cc(-c2cccc(C(F)(F)F)c2)c(Cl)cc1OC [Example 4-6, 6-((6-chloro-4-methoxy-3′-(trifluoromethyl)-3-biphenylyl)(methylcarbamoyl)amino)-N-3-isoxazolyl-3-pyridinesulfonamide]"
2,24,"CNC(=O)N(c1ccc(S(=O)(=O)Nc2ccncn2)cn1)c1cc(Cl)c(-c2ccc(F)c(C(F)(F)F)c2)cc1OC [Example 3-12, 6-((2-chloro-4′-fluoro-5-methoxy-3′-(trifluoromethyl)-4-biphenylyl)(methylcarbamoyl)amino)-N-4-pyrimidinyl-3-pyridinesulfonamide]"
3,2370,"CNC(=O)N(c1ccc(S(=O)(=O)Nc2ccon2)cn1)c1cc(-c2cccc(F)c2)ccc1OC [Example 4-3, 6-((3′-fluoro-4-methoxy-3-biphenylyl)(methylcarbamoyl)amino)-N-3-isoxazolyl-3-pyridinesulfonamide]"
4,400,"CNC(=O)N(c1ccc(S(=O)(=O)Nc2ccon2)cc1)c1ccc(-c2ccc(Cl)c(C)c2)cc1OC [Example 9, 4-(1-(4′-chloro-3-methoxy-3′-methyl-[1,1′-biphenyl]-4-yl)-3methylureido)-N-(isoxazol-3-yl)benzenesulfonamide]"
5,26,"CNC(=O)N(c1ccc(S(=O)(=O)Nc2ccnc(C)n2)cn1)c1cc(Cl)c(-c2ccc(F)c(C(F)(F)F)c2)cc1OC [Example 3-11, 6-((2-chloro-4′-fluoro-5-methoxy-3′-(trifluoromethyl)-4-biphenylyl)(methylcarbamoyl)amino)-N-(2-methyl-4-pyrimidinyl)-3-pyridinesulfonamide]"
6,849,"CNC(=O)N(c1ccc(S(=O)(=O)Nc2ccon2)cn1)c1cc(F)c(CCC(F)(F)F)cc1OC [Example 8, 6-((5-fluoro-2-methoxy-4-(3,3,3-trifluoropropyl)phenyl)(methylcarbamoyl)amino)-N-3-isoxazolyl-3-pyridinesulfonamide]"
7,20,"CNC(=O)N(c1ccc(S(=O)(=O)Nc2ncco2)cn1)c1cc(Cl)c(-c2ccc(F)c(C(F)(F)F)c2)cc1OC [Example 3-10, 6-((2-chloro-4′-fluoro-5-methoxy-3′-(trifluoromethyl)-4-biphenylyl)(methylcarbamoyl)amino)-N-1,3-oxazol-2-yl-3-pyridinesulfonamide]"
